Reference: patent publication US20080008768A1, “Compositions and Methods for Inhibiting Sonic Hedgehog Activity” (priority 2004, published 2008)
Where “and” joins values, the source holds several entries; their conditions need not be identical. Equal values may be shown once. Read-outs that look alike come from different tables or passages of the source. Marks after values point to notes of the source that are not given here.

Columns and labels:
[1] = tested on: Shh-dependent pancreatic cancer cell line L3.6pl; format: cell-based; conditions: for Cell Growth (normalized): normalized to cell growth in carrier
[2] = tested on: mouse embryo zone of polarizing activity (ZPA); conditions: Bell, et al. (1999); cited from earlier work
[3] = tested on: C57BL/6CrIBR mice; assay: Cadmium-induced forelimb ectrodactyly in fetuses of treated pregnant mice; format: in vivo, mouse
Description: Cadmium-induced Forelimb Ectrodactyly. C57BL/6CrIBR mice were purchased from Charles River Laboratories (Wilmington, Mass.). Individual males were placed in female cages for the last 2-3 hours of the 12 hour dark cycle (10:00 pm to 10:00 am). The presence of a vaginal plug indicated a successful mating and 9:00 am was considered time zero of pregnancy. On day 7 of gestation, plugged females were lightly anesthetized with Isofluorane and checked for pregnancy by abdominal palpation. The pregnant females were administered CdSO4 (SIGMA, St. Louis, Mo.), 4 mg/kg in phosphate-buffered saline (PBS), intraperitoneally, at 9:00 pm on day 9. These pregnant females were then allowed free access to food and water until day 18 when they were sacrificed by Isofluorane overdose. The fetuses were removed from the uterus and prepared for skeletal analysis by double-staining of cartilage and bone (Kuczuk and Scott (1984) supra).
CdSo4, 4 mg/kg, was administered intraperitoneally on day 9 of gestation.

[4] = tested on: mouse embryo zone of polarizing activity (ZPA); assay: Polarizing activity of mouse embryo ZPA grafted to chick wing bud; format: in vivo
Description: Polarizing Activity. Fertilized White Leghorn eggs (SPAFAS) were incubated at 38° C. On the second day, 1 to 2 mL of albumin were removed so that the eggs could be windowed the next day without damaging the embryo. After windowing, 3 drops of penicillin/streptomycin (50 units/mL) were added and the window closed with SCOTCH™ tape. On the fourth day of incubation a piece of day 10.5 mouse embryo right forelimb was excised from the posterior aspect (i.e., ZPA) of cadmium sulfate- or PBS-exposed embryos and grafted between the ectoderm and mesenchyme at the anterior margin of a stage 19/20 (Hamburger and Hamilton (1951) J. Morphol. 88:49-92) chick right wing bud. After grafting, 3 drops of penicillin/streptomycin were added, the window closed with tape and the egg replaced in the incubator for 7 additional days. At this time the chick embryo was sacrificed and the right wing bud processed for skeletal examination (Kuczuk and Scott (1984) supra). After staining, the digit pattern was determined and the index of polarizing activity was assessed according to standard methods (Honig, et al. (1981) J. Embryol. Exp. Morph. 62:203-216),

[5] = tested on: Shh signaling; assay: Shh signaling activity of forelimb bud lysate in Shh-Light 2 cells (Gli-luciferase reporter); format: cell-based, mouse; conditions: lysate of E10.5 right forelimb bud cells, 24 h after 4 mg/kg to dam
Description: Shh Signaling Activity. Pregnant C57BL/6 mice were treated with CdSo4, 4 mg/kg, or PBS, 10 mL/kg, at 9:00 pm on day 9 of gestation. Twenty-four hours post-treatment the dams were sacrificed. The implantation sites were removed and frozen in liquid nitrogen. Samples were stored at −80° C. until use in the Shh activity assay.
To create a sample of cell lysate, a litter of implantation sites was thawed and the embryos dissected free of their surrounding membranes. Somites were counted and the embryo limb staged according to standard practices (Wanek, et al. (1989) J. Exp. Zool. 249:41-49). […] Samples were sonicated and DNA measured using the HOEFER™ DYNA QUANT™ 200 Fluorimeter. After DNA quantification, fetal bovine serum was added so that the final concentration of serum was 0.5%.
Assay of SHH signaling activity was conducted in Shh-Light 2 cells, an NIH-3T3-derived stable cell line containing an integrated Gli-luciferase and constitutive Renilla luciferase reporters. […] Using the DUAL-LUCIFERASE® Reporter Assay System (PROMEGA®, Madison, Wis.), luciferase activity was measured and normalized to a Renilla control.
A more direct and specific assay of Shh signaling is provided in Shh-Light 2 cells. […] Culture of these cells with a medium or cellular homogenate containing Shh activates reporter expression and that activity can be quantitated luminometrically.

[6] = tested on: Shh; assay: Whole mount in situ hybridization, Shh; format: in vivo, mouse; conditions: right forelimb, 24 hours after treatment
Description: (§1) Whole Mount In Situ Hybridization. Assays were performed in accordance with standard methods (Wilkinson and Nieto (1993) Meth. Enzymol. 225:361-373). Embryos from control and cadmium-exposed pregnancies were processed together in the same vessel, examined and photographed using an OLYMPUS® SZX9 stereomicroscope. Digoxigenin-labeled riboprobes were transcribed from linearized DNA templates.
(§2) The expression pattern of four genes (i.e., Shh, Ptch1, Gli3, and Fgf8) in the right forelimb of control and cadmium-exposed embryos was examined by whole mount in situ hybridization 24 hours after treatment. The expression of Shh was restricted to the posterior mesenchymal cells of the developing murine limb bud.

[7] = tested on: Ptch1; assay: Whole mount in situ hybridization, Ptch1; format: in vivo, mouse; conditions: right forelimb, 24 hours after treatment
Description: as §1, §2

[8] = tested on: Gli3; assay: Whole mount in situ hybridization, Gli3; format: in vivo, mouse; conditions: right forelimb, 24 hours after treatment
Description: as §1, §2

[9] = tested on: Fgf8; assay: Whole mount in situ hybridization, Fgf8; format: in vivo, mouse; conditions: day 10.5, 24 hours after administration
Description: as §1, §2

[10] = tested on: Shh; assay: Quantitative RT-PCR of forelimb buds, Shh; format: in vivo, mouse; conditions: limb buds of day 10.5 embryos, normalized to tubulin
Description: (§3) Real Time Reverse Transcribed-Polymerase Chain Reaction (RT-PCR). Precise levels of message expression of Shh, Ptch1, and Gli3 were performed by RT-PCR. […] Right and left forelimb buds from a single litter (n=3) were pooled separately and equal amounts of total RNA were reverse-transcribed using […]™ II (INVITROGEN™, Carlsbad, Calif.) in the presence of oligo-dT or random primers. For quantitative PCR, aliquots of the reverse transcription reaction were amplified in the presence of SYBR® Green (Quantitect SYBR® green PCR kit; QIAGEN®, Valencia, Calif.) and gene specific primers for Shh, Ptch1, Gli3 and aTub. […] The PCR amplifications and monitoring of product generation per cycle were performed using a DNA Engine OPTICON® 2 Continuous Fluorescence Detector and evaluated using its software. Gene expression levels were determined by gene-specific standard curves in the linear amplification phase. All values were normalized to tubulin within the same sample.

[11] = tested on: Ptch1; assay: Quantitative RT-PCR of forelimb buds, Ptch1; format: in vivo, mouse; conditions: limb buds of day 10.5 embryos, normalized to tubulin
Description: as §3

[12] = tested on: Gli3; assay: Quantitative RT-PCR of forelimb buds, Gli3; format: in vivo, mouse; conditions: limb buds of day 10.5 embryos, normalized to tubulin
Description: as §3

[13] = 4 mg/kg i.p. day 9 of gestation, 8 dams, 68 implantation sites
[14] = 4 mg/kg i.p. day 9 of gestation, fetuses examined day 18

## CC(=O)Nc1nnc(S(N)(=O)=O)s1 [Acetazolamide, reference compound]
[1]; inhibitor 10 μM
  Cell Growth (normalized): 1.0312
[1]; inhibitor 100 μM
  Cell Growth (normalized): 1.0370
[1]; inhibitor 1000 μM
  Cell Growth (normalized): 1.0130
[2]
  Signaling by Shh protein measured by polarizing activity of ZPA (in words): almost totally abolished

## Cadmium Sulfate
[1]; comparison of inhibitors
  Inhibition of proliferation (in words): more effectively than cyclopamine and acetazolamide
[1]; inhibitor 1 μM
  Cell Growth (normalized): 1.0341
[1]; inhibitor 10 μM
  Cell Growth (normalized): 0.9007
[1]; inhibitor 30 μM
  Cell Growth (normalized): 0.7200
[1]; inhibitor 100 μM
  Cell Growth (normalized): 0.0041
[1]; inhibitor 1000 μM
  Cell Growth (normalized): 0.0029
[3]; 4 mg/kg i.p. day 9
  Fetuses with right forelimb affected by postaxial ectrodactyly: 78%
  Number of fetuses with ectrodactyly, Bilateral R < L: 3
  Number of fetuses with ectrodactyly, Bilateral R = L: 21
  Number of fetuses with ectrodactyly, Bilateral R > L: 5
[3]; 4 mg/kg i.p. day 9, left forelimb only
  Number of fetuses with ectrodactyly, LFL Only: 4
[3]; 4 mg/kg i.p. day 9, right forelimb only
  Number of fetuses with ectrodactyly, RFL Only: 12*
[3]; [13]
  No. Resorptions: 15
  Resorptions (%): 22%
[3]; [14]
  Fetuses with Postaxial Forelimb Ectrodactyly (%): 85%
  No. Fetuses with Postaxial Forelimb Ectrodactyly: 45
[4]; day 10.5 mouse embryo ZPA after exposure
  Capability of ZPA to induce limb reduplication (in words): severely inhibited
[4]; individual grafts of day 10.5 ZPA from exposed embryos, x = unidentifiable partial duplicated digit, listed as CdSo4
  Induced Digit Pattern: 22234 and 234 (4×)
[5]
  Shh signaling level compared to lysate from control embryo right forelimb buds: 25%
[6]
  Shh expression location or intensity (in words): No discernable difference
[7]
  Ptch1 expression pattern (in words): unchanged
[8]
  Gli3 expression (in words): did not alter Gli3 expression
[9]
  Fgf8 staining (in words): slight truncation of Fgf8 staining posteriorly
[10]
  Shh mRNA level (in words): A reduction of mRNA levels was not observed
[11]
  Ptch1 mRNA level (in words): A reduction of mRNA levels was not observed
[12]
  Gli3 mRNA level (in words): A reduction of mRNA levels was not observed
